Data on 14 compounds can be found in US9868766B2, “Peptides as oxytocin agonists” (Hoffmann-La Roche Inc., priority 2012, dated 2018).

Positions of bridges follow the written chain, without caps; N, C: chain ends. Non-standard residues stand in square brackets, D forms with d. Residues, ends and D or L forms follow the SMILES beside them. Phe(4-NH2) = Nc1ccc(C[C@H](N)C(=O)O)cc1; d(aIle) = CC[C@H](C)[C@@H](N)C(=O)O; αMeL = CC(C)C[C@](C)(N)C(=O)O; Pip = O=C(O)[C@@H]1CCCCN1; Orn = NCCC[C@H](N)C(=O)O; Aze = O=C(O)[C@@H]1CCN1; Sar = CNCC(=O)O

Type in all cases: cell-based
In one experiment the target is T1, human V1a receptor (Homo sapiens, UniProt P37288).
T1 construct: expressed in transfected cells
T1 sequence (P37288 whole entry): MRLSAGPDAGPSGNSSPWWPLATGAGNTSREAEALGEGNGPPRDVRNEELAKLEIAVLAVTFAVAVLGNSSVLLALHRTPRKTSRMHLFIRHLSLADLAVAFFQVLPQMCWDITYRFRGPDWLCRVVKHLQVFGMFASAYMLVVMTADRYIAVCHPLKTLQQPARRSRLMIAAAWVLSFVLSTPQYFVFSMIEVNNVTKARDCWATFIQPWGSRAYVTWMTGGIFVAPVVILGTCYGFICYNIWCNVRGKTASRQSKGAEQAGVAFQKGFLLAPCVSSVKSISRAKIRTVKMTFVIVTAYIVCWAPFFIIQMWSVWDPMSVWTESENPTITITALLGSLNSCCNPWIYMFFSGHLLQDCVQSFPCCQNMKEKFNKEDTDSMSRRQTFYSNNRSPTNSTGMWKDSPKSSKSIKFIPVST
Nature of the experiment: Calcium flux assay (FLIPR), agonist mode, CHO cells expressing human V1a. As to conditions: for EC50: CHO cells stably expressing human V1a, calcium flux, read-out: hV1a EC50. The text has this:
(§1) Chines Hamster Ovary (CHO) cells were transfected with expression plasmids encoding either the human V1a, the human Oxytocin (OTR) or the humanV2 receptor, the later in combination with the chimeric Gqs5 G protein to redirect the signal to Calcium flux. Stable cells were cloned by limiting dilution to yield monoclonal cell lines expressing either human V1a, human V2+Gqs5 or human OTR receptors and selected based on functional responses detected on a fluorometric imaging plate reader (FLIPR) detecting Calcium flux in the cell after receptor activation. The stable cell lines were grown in F-12 K Nutrient Mixture (Kaighns Modification), containing 10% foetal bovine serum (FBS), 1% penicillin-streptomycin, 1% L-glutamate, 200 ug/ml Geneticin at 37° C. in a 10% CO2 incubator at 95% humidity.
(§2) On the afternoon before the assay, cells were plated at a density of 50,000 cells/well into black 96 well plates with clear bottoms to allow cell inspection and fluorescence measurements from the bottom of each well. The density of cells was sufficient to yield a confluent monolayer the next day. Hanks balanced salt solution, without phenol red, containing 20 mM HEPES (pH 7.3) and 2.5 mM probenecid (assay buffer) was prepared fresh for each experiment. Compound dilutions were made using a Beckman Biomek 2000 laboratory automation workstation, in assay buffer containing 1% DMSO. The dye-loading buffer consisted of a final concentration of 2 μM Fluo-4-AM (dissolved in DMSO and pluronic acid) in assay buffer. The existing culture media was removed from the wells and 100 μl of the dye-loading buffer was added to each well and incubated for approximately 60 min at 37° C. in a 5% CO2 incubator at 95% humidity. Once dye-loaded, the cells were washed thoroughly on an Embla cell washer with the assay buffer to remove any unincorporated dye. Exactly 100 μl assay buffer was left in each well.
(§3) Each 96 well plate containing dye-loaded cells was placed into the FLIPR machine and the laser intensity set to a suitable level to detect low basal fluorescence. To test compounds as agonists, 25 μl diluted compound was added to the plate 10 seconds into the fluorescent measurements and fluorescent response was recorded for 5 minutes. The fluorescence data was normalized to the endogenous full agonist dose-response set at 100% for the maximum response and 0% for the minimum. Each agonist concentration-response curve was constructed using a four parameter logistic equation with Microsoft Excel XLFit as follows: Y=Minimum+((Maximum−Minimum)/(1+10^(Log EC50-X)nH)), where y is the % normalized fluorescence, minimum is the minimum y, maximum is the maximum y, log EC50 is the log10 concentration which produces 50% of the maximum induced fluorescence, x is the log10 of the concentration of the agonist compound and H is the slope of the curve (the Hill Coefficient). The maximum value gives the efficacy of the agonist test compound in percentage. The concentration of agonist that produced a half-maximal response is represented by the EC50 value, the logarithm of which yielded the pEC50 value.
In general terms: Calcium assays in cells follow changes in intracellular calcium, usually with a dye or a luminescent sensor.

Experiment [1] has as its target T2, human Oxytocin (OTR) receptor (Homo sapiens, UniProt P30559).
T2 construct: expressed in transfected cells
T2 sequence (P30559 1-389): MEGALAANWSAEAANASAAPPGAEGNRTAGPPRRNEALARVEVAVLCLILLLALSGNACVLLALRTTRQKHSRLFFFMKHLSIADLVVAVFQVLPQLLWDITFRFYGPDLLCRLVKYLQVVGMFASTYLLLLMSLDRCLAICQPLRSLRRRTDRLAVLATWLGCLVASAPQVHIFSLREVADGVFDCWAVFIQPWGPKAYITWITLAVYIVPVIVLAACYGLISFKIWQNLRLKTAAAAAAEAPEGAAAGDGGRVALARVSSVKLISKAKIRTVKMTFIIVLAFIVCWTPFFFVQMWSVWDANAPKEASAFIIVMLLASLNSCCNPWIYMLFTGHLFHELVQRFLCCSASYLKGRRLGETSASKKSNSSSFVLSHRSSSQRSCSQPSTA
Nature of the experiment: Calcium flux assay (FLIPR), agonist mode, CHO cells expressing human OTR. The following applies: for EC50: CHO cells stably expressing human OTR, calcium flux, read-out: hOT EC50; for hOT efficacy (%) / Emax: maximum response normalized to endogenous full agonist = 100%; for Emax: CHO, read-out: hOT efficacy (%).
From the text: Chines Hamster Ovary (CHO) cells were transfected with expression plasmids encoding either the human V1a, the human Oxytocin (OTR) or the humanV2 receptor, the later in combination with the chimeric Gqs5 G protein to redirect the signal to Calcium flux. Stable cells were cloned by limiting dilution to yield monoclonal cell lines expressing either human V1a, human V2+Gqs5 or human OTR receptors and selected based on functional responses detected on a fluorometric imaging plate reader (FLIPR) detecting Calcium flux in the cell after receptor activation.
as §2, with “The existing culture media was removed from the wells and 100 μl of the dye-loading buffer was added to each well and incubated for approximately 60 min at 37° C. in a 5% CO2 incubator at 95% humidity.” left out
Each 96 well plate containing dye-loaded cells was placed into the FLIPR machine and the laser intensity set to a suitable level to detect low basal fluorescence. To test compounds as agonists, 25 μl diluted compound was added to the plate 10 seconds into the fluorescent measurements and fluorescent response was recorded for 5 minutes. The fluorescence data was normalized to the endogenous full agonist dose-response set at 100% for the maximum response and 0% for the minimum. […] The concentration of agonist that produced a half-maximal response is represented by the EC50 value, the logarithm of which yielded the pEC50 value.

Another experiment has as its target T3, human V2 receptor (Homo sapiens, UniProt P30518).
T3 construct: expressed in transfected cells
Nature of the experiment: Calcium flux assay (FLIPR), agonist mode, CHO cells expressing human V2 + Gqs5. As to conditions: CHO; maximum response normalized to endogenous full agonist = 100%; read-out: hV2 efficacy (%).
From the text: as §1, §2, §3

T3 sequence (P30518 whole entry): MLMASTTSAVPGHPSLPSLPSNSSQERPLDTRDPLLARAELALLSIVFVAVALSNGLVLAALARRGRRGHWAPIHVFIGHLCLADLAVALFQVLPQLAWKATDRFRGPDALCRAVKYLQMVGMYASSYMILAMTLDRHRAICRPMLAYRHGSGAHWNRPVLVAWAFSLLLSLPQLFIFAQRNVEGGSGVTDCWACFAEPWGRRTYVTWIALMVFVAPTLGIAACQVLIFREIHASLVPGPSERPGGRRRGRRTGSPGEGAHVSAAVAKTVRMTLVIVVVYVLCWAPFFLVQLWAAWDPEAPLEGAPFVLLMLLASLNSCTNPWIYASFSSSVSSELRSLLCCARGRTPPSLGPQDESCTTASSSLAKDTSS

A word on the EC50: it is the concentration needed to bring the measured effect to its halfway point. For `CC[C@H](C)[C@@H]1NC(=O)[C@H](Cc2ccc(O)cc2)NC(=O)CNC(=O)CC[C@@H](C(=O)N2CCC[C@H]2C(=O)N[C@@H](Cc2ccc(N)cc2)C(=O)NCC(N)=O)NC(=O)[C@H](CC(N)=O)NC(=O)[C@H](CCC(N)=O)NC1=O` [Example 11] (GYIQNEP[Phe(4-NH2)]G-NH2; lactam N-6), on human V1a receptor, the EC50 was > 27000 nM. Besides, in experiment [1], the EC50 amounted to 11 nM and the “hOT efficacy (%)” value is recorded as 94%.
With `CC[C@H](C)[C@@H]1NC(=O)[C@H](Cc2ccc(O)cc2)NC(=O)CNC(=O)CC[C@@H](C(=O)NCC(=O)N[C@@H](CC(C)C)C(=O)NCC(N)=O)NC(=O)[C@H](CC(N)=O)NC(=O)[C@H](CCC(N)=O)NC1=O` [Example 6] (GYIQNEGLG-NH2; lactam N-6), the EC50 at human V1a receptor was > 27000 nM. Also, in experiment [1], the EC50 is 11 nM and the “hOT efficacy (%)” value turned out to be 95%.
The matching figures for `CC[C@H](C)[C@@H]1NC(=O)[C@H](Cc2ccc(O)cc2)NC(=O)CNC(=O)CC[C@@H](C(=O)N[C@@H](C)C(=O)N[C@@H](CC(C)C)C(=O)NCC(N)=O)NC(=O)[C@H](CC(N)=O)NC(=O)[C@H](CCC(N)=O)NC1=O` [Example 17] (GYIQNEALG-NH2; lactam N-6): > 12000 nM, 45 nM and 92%.
The matching figures for `CC[C@H](C)[C@@H]1NC(=O)[C@H](Cc2ccc(O)cc2)NC(=O)CNC(=O)CC[C@@H](C(=O)N2CCC[C@H]2C(=O)N[C@H](CC(C)C)C(=O)NCC(N)=O)NC(=O)[C@H](CC(N)=O)NC(=O)[C@H](CCC(N)=O)NC1=O` [Example 15] (GYIQNEP[dL]G-NH2; lactam N-6): > 12000 nM, 52 nM and 102%.
Turning to `CC[C@H](C)[C@@H]1NC(=O)[C@H](Cc2ccc(O)cc2)NC(=O)CNC(=O)CC[C@@H](C(=O)N2CCC[C@H]2C(=O)N[C@H](C(=O)NCC(N)=O)C(C)C)NC(=O)[C@H](CC(N)=O)NC(=O)[C@H](CCC(N)=O)NC1=O` [Example 19] (GYIQNEPVG-NH2; lactam N-6), the EC50 on human V1a receptor stood at 127 nM. For the same compound, the “hV1a efficacy (%)” value on human V1a receptor (maximum response normalized to endogenous full agonist = 100%) was determined as 33%. Besides, in experiment [1], the EC50 stood at 1.5 nM and the Emax was determined as 122%.
For `CC[C@H](C)[C@@H]1NC(=O)[C@H](Cc2ccc(O)cc2)NC(=O)CNC(=O)CC[C@@H](C(=O)N2CC[C@H]2C(=O)N[C@@H](CC(C)C)C(=O)NCC(N)=O)NC(=O)[C@H](CC(N)=O)NC(=O)[C@H](CCC(N)=O)NC1=O` [Example 50] (GYIQNE[Aze]LG-NH2; lactam N-6), the EC50 was > 27000 nM on human V1a receptor and 3.6 nM in experiment [1]. For the same compound, the Emax in experiment [1] was 99%.
Turning to `CC[C@H](C)[C@@H]1NC(=O)[C@H](Cc2ccc(O)cc2)NC(=O)CNC(=O)CC[C@@H](C(=O)N(C)CC(=O)N[C@@H](CCSC)C(=O)NCC(N)=O)NC(=O)[C@H](CC(N)=O)NC(=O)[C@H](CCC(N)=O)NC1=O` [Example 35] (GYIQNE[Sar]MG-NH2; lactam N-6), the values for the Emax (in experiment [1]; on human V2 receptor) were 111% and 104%, respectively.
As for `CC[C@H](C)[C@@H]1NC(=O)[C@H](Cc2ccc(O)cc2)NC(=O)CNC(=O)CC[C@@H](C(=O)N2CCC[C@H]2C(=O)N[C@@H](C)C(=O)NCC(N)=O)NC(=O)[C@H](CC(N)=O)NC(=O)[C@H](CCC(N)=O)NC1=O` [Example 18] (GYIQNEPAG-NH2; lactam N-6), the EC50 at human V1a receptor was > 12000 nM. In addition, in experiment [1], the EC50 was 24 nM and the “hOT efficacy (%)” value was found to be 91%.
The matching figures for `CC[C@H](C)[C@@H]1NC(=O)[C@H](Cc2ccc(O)cc2)NC(=O)CNC(=O)CC[C@@H](C(=O)N(C)CC(=O)N[C@@](C)(CC(C)C)C(=O)NCC(N)=O)NC(=O)[C@H](CC(N)=O)NC(=O)[C@H](CCC(N)=O)NC1=O` [Example 51] (GYIQNE[Sar][αMeL]G-NH2; lactam N-6): > 27000 nM, 13 nM and 97%.
With `CC[C@H](C)[C@@H]1NC(=O)[C@H](Cc2ccc(O)cc2)NC(=O)CNC(=O)CC[C@@H](C(=O)N2CCC[C@H]2C(=O)N[C@@H](CC(C)C)C(=O)NCC(N)=O)NC(=O)[C@H](CC(N)=O)NC(=O)[C@H](CCCN)NC1=O` [Example 20] (GYI[Orn]NEPLG-NH2; lactam N-6), the EC50 at human V1a receptor was > 12000 nM; in experiment [1], 40 nM.
For `CC[C@H](C)[C@@H]1NC(=O)[C@H](Cc2ccc(O)cc2)NC(=O)CNC(=O)CC[C@@H](C(=O)N(C)CC(=O)N[C@@H](CC(C)C)C(=O)NCC(N)=O)NC(=O)[C@H](CC(N)=O)NC(=O)[C@H](C)NC1=O` [Example 37] (GYIANE[Sar]LG-NH2; lactam N-6), in experiment [1], the EC50 was 4 nM and the Emax was 137%.
With `CC[C@H](C)[C@@H]1NC(=O)[C@H](Cc2ccc(O)cc2)NC(=O)CNC(=O)CC[C@@H](C(=O)N2CCC[C@@H]2C(=O)N[C@@H](CC(C)C)C(=O)NCC(N)=O)NC(=O)[C@H](CC(N)=O)NC(=O)[C@H](CCC(N)=O)NC1=O` [Example 23] (GYIQNE[dP]LG-NH2; lactam N-6), in experiment [1], the EC50 worked out at 88 nM and the “hOT efficacy (%)” value was 64%.
The matching figures for `CC[C@H](C)[C@H]1NC(=O)[C@H](Cc2ccc(O)cc2)NC(=O)CNC(=O)CC[C@@H](C(=O)N2CCC[C@H]2C(=O)N[C@@H](CC(C)C)C(=O)NCC(N)=O)NC(=O)[C@H](CC(N)=O)NC(=O)[C@H](CCC(N)=O)NC1=O` [Example 22] (GY[d(aIle)]QNEPLG-NH2; lactam N-6): 98 nM and 116%.
Take `CC[C@H](C)[C@@H]1NC(=O)[C@H](Cc2ccc(O)cc2)NC(=O)CNC(=O)CC[C@@H](C(=O)N2CCCC[C@H]2C(=O)N[C@@H](CC(C)C)C(=O)NCC(N)=O)NC(=O)[C@H](CC(N)=O)NC(=O)[C@H](CCC(N)=O)NC1=O` [Example 47] (GYIQNE[Pip]LG-NH2; lactam N-6): in experiment [1], the EC50 came out at 1.5 nM and the Emax came to 111%.
